Measured values: ChEMBL document CHEMBL4418912, “Methods of identifying antagonists of the hTAS2R46 bitter taste receptor” (2014)
The source made the active and inactive calls. No cut-off for these calls is given here.

Assays:
Assay type in all cases: functional, cell-based
[1] = biological target: T1, Taste receptor type 2 member 5 (Homo sapiens) (UniProt Q9NYW4); test: Antagonist activity at recombinant human N-terminal rat ST3 receptor-fused TAS2R5 expressed in HEK293T cells co-expressing Galpha16gust44 assessed as inhibition of denatonium saccharide-induced intracellular calcium level at 100 uM by FLIPR assay
T1 sequence (whole entry): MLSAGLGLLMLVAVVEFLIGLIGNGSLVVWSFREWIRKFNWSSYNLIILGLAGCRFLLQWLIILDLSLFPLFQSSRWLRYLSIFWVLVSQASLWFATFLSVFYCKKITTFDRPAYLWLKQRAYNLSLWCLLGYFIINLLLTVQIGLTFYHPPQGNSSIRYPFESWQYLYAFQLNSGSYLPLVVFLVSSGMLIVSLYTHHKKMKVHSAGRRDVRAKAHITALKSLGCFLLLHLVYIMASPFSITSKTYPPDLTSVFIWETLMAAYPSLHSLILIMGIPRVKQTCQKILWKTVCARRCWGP

[2] = biological target: T2, Taste receptor type 2 member 13 (Homo sapiens) (UniProt Q9NYV9); test: Agonist activity at recombinant human N-terminal rat ST3 receptor-fused TAS2R13 expressed in HEK293T cells co-expressing Galpha16gust44 assessed as increase in intracellular calcium level at 100 uM by FLIPR assay
T2 sequence (whole entry): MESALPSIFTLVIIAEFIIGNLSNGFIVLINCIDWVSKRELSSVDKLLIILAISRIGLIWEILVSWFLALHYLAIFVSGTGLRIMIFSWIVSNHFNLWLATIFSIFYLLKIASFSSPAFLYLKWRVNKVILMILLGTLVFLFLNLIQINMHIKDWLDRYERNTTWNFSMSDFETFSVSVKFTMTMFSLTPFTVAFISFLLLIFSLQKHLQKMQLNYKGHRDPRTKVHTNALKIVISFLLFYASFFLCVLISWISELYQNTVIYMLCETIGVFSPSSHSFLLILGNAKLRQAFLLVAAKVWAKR

[3] = biological target: T3, Taste receptor type 2 member 39 (Homo sapiens) (UniProt P59534); test: Agonist activity at recombinant human N-terminal rat ST3 receptor-fused TAS2R39 expressed in HEK293T cells co-expressing Galpha16gust44 assessed as increase in intracellular calcium level at 100 uM by FLIPR assay
T3 sequence (whole entry): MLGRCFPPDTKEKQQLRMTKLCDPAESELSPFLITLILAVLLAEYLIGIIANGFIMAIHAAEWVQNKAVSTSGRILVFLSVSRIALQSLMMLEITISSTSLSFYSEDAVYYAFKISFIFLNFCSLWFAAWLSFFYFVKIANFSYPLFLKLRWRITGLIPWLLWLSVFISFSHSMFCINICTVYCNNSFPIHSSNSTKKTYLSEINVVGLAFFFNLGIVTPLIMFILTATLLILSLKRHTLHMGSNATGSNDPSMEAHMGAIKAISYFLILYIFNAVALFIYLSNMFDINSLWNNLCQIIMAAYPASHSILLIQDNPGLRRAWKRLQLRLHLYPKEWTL

[4] = biological target: T4, Taste receptor type 2 member 31 (Homo sapiens) (UniProt P59538); test: Agonist activity at recombinant human N-terminal rat ST3 receptor-fused TAS2R44 expressed in HEK293T cells co-expressing Galpha16gust44 assessed as increase in intracellular calcium level at 100 uM by FLIPR assay
T4 sequence (whole entry): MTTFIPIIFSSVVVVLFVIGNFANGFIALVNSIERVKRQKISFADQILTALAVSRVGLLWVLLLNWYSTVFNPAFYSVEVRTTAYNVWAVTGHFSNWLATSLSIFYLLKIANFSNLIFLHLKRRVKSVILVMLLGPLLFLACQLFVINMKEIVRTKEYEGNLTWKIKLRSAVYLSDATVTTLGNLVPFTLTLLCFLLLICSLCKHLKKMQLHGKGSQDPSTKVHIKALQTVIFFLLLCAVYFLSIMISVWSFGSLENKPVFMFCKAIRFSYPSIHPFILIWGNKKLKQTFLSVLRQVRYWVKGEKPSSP

[5] = biological target: T5, Taste receptor type 2 member 10 (Homo sapiens) (UniProt Q9NYW0); test: Competitive-antagonist activity at recombinant human N-terminal rat ST3 receptor-fused TAS2R10 expressed in HEK293T cells co-expressing Galpha16gust44 assessed as inhibition of strychnine-induced increase in intracellular calcium level by measuring maximum signal amplitude at 10 uM by FLIPR assay (reference value: 0.42 +/- 0.09 a.u.)
T5 sequence (whole entry): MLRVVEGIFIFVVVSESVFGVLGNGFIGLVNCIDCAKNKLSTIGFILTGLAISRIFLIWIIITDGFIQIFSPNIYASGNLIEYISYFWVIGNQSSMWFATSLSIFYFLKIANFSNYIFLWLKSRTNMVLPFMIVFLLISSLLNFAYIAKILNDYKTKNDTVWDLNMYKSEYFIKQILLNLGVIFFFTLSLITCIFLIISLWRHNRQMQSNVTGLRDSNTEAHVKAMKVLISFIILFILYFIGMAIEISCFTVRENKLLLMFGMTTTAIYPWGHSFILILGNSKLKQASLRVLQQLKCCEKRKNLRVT

[6] = biological target: T6, Taste receptor type 2 member 4 (Homo sapiens) (UniProt Q9NYW5); test: Agonist activity at recombinant human N-terminal rat ST3 receptor-fused TAS2R4 expressed in HEK293T cells co-expressing Galpha16gust44 assessed as increase in intracellular calcium level at 100 uM by FLIPR assay
T6 sequence (whole entry): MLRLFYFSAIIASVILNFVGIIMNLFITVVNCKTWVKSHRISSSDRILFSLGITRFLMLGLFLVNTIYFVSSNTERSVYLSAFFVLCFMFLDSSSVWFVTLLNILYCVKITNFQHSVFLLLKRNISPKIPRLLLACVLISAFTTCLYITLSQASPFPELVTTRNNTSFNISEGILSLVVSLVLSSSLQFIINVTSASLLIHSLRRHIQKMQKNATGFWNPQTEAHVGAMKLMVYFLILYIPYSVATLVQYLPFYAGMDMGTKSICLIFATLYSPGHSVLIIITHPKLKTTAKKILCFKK

[7] = biological target: T1, Taste receptor type 2 member 5 (Homo sapiens); test: Agonist activity at recombinant human N-terminal rat ST3 receptor-fused TAS2R5 expressed in HEK293T cells co-expressing Galpha16gust44 assessed as increase in intracellular calcium level at 100 uM by FLIPR assay
[8] = biological target: T7, Taste receptor type 2 member 8 (Homo sapiens) (UniProt Q9NYW2); test: Agonist activity at recombinant human N-terminal rat ST3 receptor-fused TAS2R8 expressed in HEK293T cells co-expressing Galpha16gust44 assessed as increase in intracellular calcium level at 100 uM by FLIPR assay
T7 sequence (whole entry): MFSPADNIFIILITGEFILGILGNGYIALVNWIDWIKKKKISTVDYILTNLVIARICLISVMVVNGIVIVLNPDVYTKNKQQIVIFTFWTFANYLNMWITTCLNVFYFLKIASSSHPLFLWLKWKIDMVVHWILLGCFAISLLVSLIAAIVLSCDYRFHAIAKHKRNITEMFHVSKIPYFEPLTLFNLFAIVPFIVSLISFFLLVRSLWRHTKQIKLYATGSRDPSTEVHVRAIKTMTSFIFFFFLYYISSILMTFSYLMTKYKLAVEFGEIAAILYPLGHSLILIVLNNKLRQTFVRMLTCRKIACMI

C/C1=C\C[C@H](O)[C@@H](C)C[C@H]2OC(=O)[C@@H](C)[C@@H]2CC1
inhibition [1]: inactive

C/C1=C\C[C@H](O)/C(C)=C/[C@H]2OC(=O)[C@@H](C)[C@@H]2CC1
Activity [2]: inactive | Activity [3]: inactive | Activity [4]: Active | Activity [5]: 0.4 a.u. | Activity [6]: Active | Activity [7]: inactive | Activity [8]: Active
